Consider three compounds from publication PMC10233844 (ACS Omega, 2023).

The test system of assay [1] is PC-3 cells. The assay can be described thus: Apoptosis analysis, Annexin V-propidium iodide flow cytometry. The class given is cell-based, human. The settings on record: PC-3, 48 h.
Assay [2] deals with PC-3 cells. The assay can be described thus: Cell cycle analysis by PI staining, flow cytometry. The format is cell-based, human. The settings on record: PC-3, at pre calculated IC50, 48 h.
The target of assay [3] is thymidylate synthase (TS) (Homo sapiens, UniProt P04818). The assay can be described thus: In vitro thymidylate synthase enzymatic assay. The format is biochemical. The following applies: compared with pemetrexed.
The subject of the next assay is FAK. The following applies: read-out: FAK inhibitor IC50; cited from earlier work.

Each structure is given as a SMILES string.

By IC50 is commonly meant the concentration needed to halve the response being measured.

Chain of thymidylate synthase (TS) (P04818 whole entry): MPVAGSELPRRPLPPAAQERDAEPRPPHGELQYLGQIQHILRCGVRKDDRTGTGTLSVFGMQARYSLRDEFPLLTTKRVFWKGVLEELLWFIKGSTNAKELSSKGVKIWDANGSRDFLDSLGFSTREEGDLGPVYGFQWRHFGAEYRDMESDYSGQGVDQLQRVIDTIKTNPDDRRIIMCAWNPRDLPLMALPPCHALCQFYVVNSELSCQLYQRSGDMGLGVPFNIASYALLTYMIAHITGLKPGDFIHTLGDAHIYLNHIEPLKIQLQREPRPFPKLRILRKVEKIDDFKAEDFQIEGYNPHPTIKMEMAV

Take `C=CCc1ccc(OCc2nn(CN3CCOCC3)c(=S)o2)c(OC)c1` [Compound 17, 5-((4-Allyl-2-methoxyphenoxy)methyl)-3-(morpholinomethyl)-1,3,4-oxadiazole-2(3H)-thione]: the “necrotic cells (R1, % Parent)” value in the assay on PC-3 cells [1] was 3.56%. Moreover, in the assay with PC-3 cells [2], the “percentage of cell population at G1 phase” value is 29.30%, the “percentage of cell population at G2 phase” value is given as 8.61% and the “percentage of cell population at the S phase” value is 62.07%.
Turning to `C=CCc1ccc(OCc2nn(CN3CCCC3)c(=S)o2)c(OC)c1` [Compound 15, 5-((4-Allyl-2-methoxyphenoxy)methyl)-3-(pyrrolidin-1-ylmethyl)-1,3,4-oxadiazole-2(3H) Thione], the “TS inhibition in words” value in assay [3] is on record as “comparable TS repression to pemetrexed”.
As for `N.N.[Cl][Pt][Cl]` [Cisplatin], the 50% inhibitory concentration (IC50) in the assay on FAK was 8.6 µM.
